In patent US9587225B2, “Low-molecular-compound for improving production, maintenance and proliferation of pluripotent stem cells, composition comprising the same, and culture method” (KOREA RESEARCH INSTITUTE OF BIOSCIENCE AND BIOTECHNOLOGY, priority 2012, dated 2017):

Test system: Mouse embryonic fibroblasts (OG2-MEF; hemizygous for the Oct4-GFP transgene)
Assay: Reprogramming of mouse embryonic fibroblasts, Oct4-GFP colony count
Type: cell-based
Settings: OG2-MEF transfected with OSKM, after 15 days, compared to control group
Procedure: FIG. 1 is a process of screening mouse cell reprogramming factors using analog library screening of novel trans-3-indoleacrylic acid-based compounds. In order to screen low-molecular-weight compounds that promote the production of reprogrammed stem cells, mouse embryonic stem cells (OG2-MEF; hemizygous for the Oct4-GFP transgene) were transduced with reprogramming viruses (Oct4, Sox2, Klf4, and c-Myc). After 5 days, the cells were seeded on gelatin-coated plates and then cultured in mouse embryonic stem cell culture media containing each of low-molecular-weight compounds until colonies having a morphology similar to that of mouse embryonic stem cells were formed. After 15 days, the number of colonies expressing endogenous Oct4 GFP fluorescence was measured, and compounds that increased the efficiency of reprogramming compared to that of a control group were selected. […] Oct4 (O), Sox2 (S), Klf4 (K), and cMyc (M). FIG. 1B is a graph showing the increase in efficiency of reprogramming by RSC-133 and ID-558 among screened compounds. The values shown on the graph are mean values. The data are expressed as mean±SD (n=3).
The OSKM reprogramming factor virus was produced according to the method of Example 3. […] At 15 days after the transfection, the number of either colonies showing AP activity or colonies expressing endogenous Oct4 GFP fluorescence was measured to determine the efficiency of reprogramming.
To discover low-molecular-weight compounds that are involved in the reprogramming process, analog library screening of novel trans-3-indoleacrylic acid-based compounds was performed in mouse cells. Mouse embryonic fibroblasts (OG2-MEF: hemizygous for the Oct4-GFP transgene) were transfected with reprogramming viruses of Oct4, Sox2, Klf4 and c-Myc (OSKM), and after 5 days, the cells were seeded on gelatin-coated 12-well plates and incubated with mouse embryonic stem cell culture medium containing each of low-molecular-weight compounds until colonies having a morphology similar to that mouse stem cells were formed so that endogenous Oct4 GFP fluorescence was expressed (FIG. 1A). […]

CN(C)C(=O)c1ccc(O)c(NC(=O)C=Cc2c[nH]c3ccccc23)c1 [ID-558, 3-[3-(1H-indol-3-yl)-acrylamido]-4-hydroxy-N,N-dimethylbenzamide]
efficiency of reprogramming (number of colonies expressing endogenous Oct4 GFP fluorescence): showed the effect of increasing the efficiency of reprogramming
